Values quoted from earlier work, collected in PMC9076486 (RSC Advances, 2019).

Tested on: superoxide anions
Conditions: pH 7.4; for IC50: read-out: IC50 (SOD activity)

Compound	k cat (SOD activity)	IC50
[Cu+2].[O-][Cl+3]([O-])([O-])[O-].[O-][Cl+3]([O-])([O-])[O-] [Cu(ClO4)2, copper(II) perchlorate]	2.7 10^6 M^−1 s^−1	1100 nM
CuZn–SOD: native copper–zinc superoxide dismutase enzyme, value from ref. 42	430 10^6 M^−1 s^−1	10 nM
